Tested on: whole rat livers
Assay: Optimized partial freezing of whole rat livers: SNMP recovery after freezing
Details: −10° C., 1 day; at 3 h
Protocol: Within this standardized protocol, we first compared GLY, EG, and PG as main permeating CPA using a freezing temperature of −10° C. and storage duration of 1 day (FIG. 37). Using PG as the CPA, we subsequently tested the effect of freezing temperature (−10° C. vs −15° C.) and storage duration (1 day vs 5 days) on liver viability after partial freezing using the same protocol (FIG. 38).
Machine perfusion system: The perfusion system provides a continuous perfusion through the portal vein that is pressure, flow, and temperature controlled. The perfusates can be either recirculated or flushed with a single pass though the liver and perfusates can be changed without interrupting perfusion. The setup and operation of the perfusion system is described in detail elsewhere (see, e.g., ref. 15). There were two oxygenators used in this study, including the Radnoti (Cat #130144) and Affinity Pixie Oxygenator (Cat #BBP241). Due to the flexibility and low cost of the Radnoti oxygenator, it was first used for initial optimization and characterization studies, including determining the effect of permeating CPAs (GLY vs EG vs PG; FIG. 37), temperature (−10 vs −15° C., FIG. 38) storage duration (1 vs 5 days, FIG. 38), and warm ischemic injury. Once the major aspects of the protocol were optimized and characterized, we used the clinical grade Affinity Pixie Oxygenator. […]

## OCC(O)CO [GLY, glycerol]
  weight gain during SNMP recovery: 35.00±20.49%

Source: patent publication US20240268372A1, “Methods and Compositions for Extending Organ and Tissue Preservation” (The General Hospital Corporation, priority 2021, published 2024)
